Each structure is given as a SMILES string.

This data set relates to Pseudomonas aeruginosa PAO1 MB9798 (efflux+, IMP-1). Conditions: ratio MITC95 PA 9798/MITC95 PA 9799; imipenem at 2 μg/mL. The text has this: The strain background was Pseudomonas aeruginosa PAO1.
The strain set was then used as a pair to determine the effect of metallo-β-lactamase inhibitors of Formula I on the MIC of imipenem and/or ceftazidime. A fixed concentration of antibiotic was included in standard microbroth MIC tests, usually at the CLSI (Clinical and Laboratory Standards Institute) breakpoint concentration. A fixed amount of a class A/C beta-lactamase inhibitor was also included to inhibit the resident Pseudomonas AmpC enzyme. A serial titration of the metallo-β-lactamase inhibitor was included and the concentration of metallo-β-lactamase inhibitor which restores susceptibility of the strain to the included antibiotic was recorded. That concentration of metallo-β-lactamase inhibitor was then compared between the two strains to determine the fold difference between the efflux + (MB9798) and efflux − (MB9799) strains. This was taken as an indication of the extent to which the MBLi is subject to efflux.
Regarding `Nc1nc2c(-c3ccc(S(=O)(=O)NC4CNC[C@H]4N)c(S(N)(=O)=O)c3-c3nn[nH]n3)cccc2[nH]1` (stereo in doubt) [Example 322, 4-(2-Amino-1H-benzo[d]imidazol-4-yl)-N1-((3S,4R)-4-aminopyrrolidin-3-yl)-3-(2H-tetrazol-5-yl)benzene-1,2-disulfonamide], the Efflux ratio came to 0.83.

For `Nc1nc2cccc(-c3ccc(S(N)(=O)=O)c(S(N)(=O)=O)c3-c3nn[nH]n3)c2[nH]1` [Example 1, 4-(2-amino-3H-benzo[d]imidazol-4-yl)-3-(2H-tetrazol-5-yl)benzene-1,2-disulfonamide], the Efflux ratio turned out to be 0.65.

In the case of `Nc1ccc2cccc(-c3ccc(S(N)(=O)=O)c(S(N)(=O)=O)c3-c3nn[nH]n3)c2n1` [Example 2, 4-(2-aminoquinolin-8-yl)-3-(2H-tetrazol-5-yl)benzene-1,2-disulfonamide], the Efflux ratio turned out to be 1.00.

In the case of `NS(=O)(=O)c1ccc(-c2cccc3cn[nH]c23)c(-c2nn[nH]n2)c1S(N)(=O)=O` [Example 3, 4-(1H-indazol-7-yl)-3-(2H-tetrazol-5-yl)benzene-1,2-disulfonamide], the Efflux ratio stood at 2.00.

As to `Nc1nc2c(-c3ccc(S(N)(=O)=O)c(S(N)(=O)=O)c3-c3nn[nH]n3)cccc2o1` [Example 4, 4-(2-aminobenzo[d]oxazol-4-yl)-3-(2H-tetrazol-5-yl)benzene-1,2-disulfonamide], the Efflux ratio was 1.00.

For `Cn1c(N)nc2c(-c3ccc(S(N)(=O)=O)c(S(N)(=O)=O)c3-c3nn[nH]n3)cccc21` [Example 5, 4-(2-amino-1-methyl-1H-benzo[d]imidazol-4-yl)-3-(2H-tetrazol-5-yl)benzene-1,2-disulfonamide], the Efflux ratio was 2.00.

In the case of `Cc1ccc(-c2ccc(S(N)(=O)=O)c(S(N)(=O)=O)c2-c2nn[nH]n2)c2nc(N)sc12` [Example 6, 4-(2-amino-7-methylbenzo[d]thiazol-4-yl)-3-(2H-tetrazol-5-yl)benzene-1,2-disulfonamide], the Efflux ratio stood at 1.00.

Take `NS(=O)(=O)c1ccc(-c2cccc3[nH]c(C(=O)O)nc23)c(-c2nn[nH]n2)c1S(N)(=O)=O` [Example 8, 4-(3,4-disulfamoyl-2-(2H-tetrazol-5-yl)phenyl)-1H-benzo[d]imidazole-2-carboxylic acid]: the Efflux ratio is given as 1.00.

As for `NCCNS(=O)(=O)c1ccc(-c2cccc3cn[nH]c23)c(-c2nn[nH]n2)c1S(N)(=O)=O` [Example 9, N^1-(2-aminoethyl)-4-(1H-indazol-7-yl)-3-(2H-tetrazol-5-yl)benzene-1,2-disulfonamide], the Efflux ratio came out at 0.50.

Turning to `Cl.Cn1c(N)nc2c(-c3ccc(S(=O)(=O)NCCN)c(S(N)(=O)=O)c3-c3nn[nH]n3)cccc21` [Example 10, 4-(2-amino-1-methyl-1H-benzo[d]imidazol-4-yl)-N1-(2-aminoethyl)-3-(2H-tetrazol-5-yl)benzene-1,2-disulfonamide hydrochloride], the Efflux ratio was 1.00.

Turning to `NCCNS(=O)(=O)c1ccc(-c2cccc3oc(N)nc23)c(-c2nn[nH]n2)c1S(N)(=O)=O` [Example 11, 4-(2-aminobenzo[d]oxazol-4-yl)-N^1-(2-aminoethyl)-3-(2H-tetrazol-5-yl)benzene-1,2-disulfonamide], the Efflux ratio came to 1.00.

As for `NCCNS(=O)(=O)c1ccc(-c2cccc3[nH]c(N)nc23)c(-c2nn[nH]n2)c1S(N)(=O)=O` [Example 12, 4-(2-amino-1H-benzo[d]imidazol-4-yl)-N^1-(2-aminoethyl)-3-(2H-tetrazol-5-yl)benzene-1,2-disulfonamide], the Efflux ratio worked out at 0.75.

Consider `NCCNS(=O)(=O)c1ccc(-c2cccc3oc(C(=O)O)nc23)c(-c2nn[nH]n2)c1S(N)(=O)=O` [Example 13, 4-(4-(N-(2-aminoethyl)sulfamoyl)-3-sulfamoyl-2-(2H-tetrazol-5-yl)phenyl)benzo oxazole-2-carboxylic acid], for which the Efflux ratio is listed as 2.00.

For the compound `Nc1nc2c(-c3ccc(S(=O)(=O)NC4CCS(=O)(=O)CC4)c(S(N)(=O)=O)c3-c3nnn[nH]3)cccc2s1` [Example 14, 4-(2-amino-1,3-benzothiazol-4-yl)-N1-(1,1-dioxidotetrahydro-2H-thiopyran-4-yl)-3-(1H-tetrazol-5-yl)benzene-1,2-disulfonamide], the Efflux ratio was found to be 1.00.

In the case of `Nc1nc2c(-c3ccc(S(=O)(=O)NCCN4CCNC(=O)C4)c(S(N)(=O)=O)c3-c3nnn[nH]3)cccc2s1` [Example 15, 4-(2-amino-1,3-benzothiazol-4-yl)-N1-[2-(3-oxopiperazin-1-yl)ethyl]-3-(1H-tetrazol-5-yl)benzene-1,2-disulfonamide], the Efflux ratio is 1.00.

Consider `CN(C)CC(F)(F)CNS(=O)(=O)c1ccc(-c2cccc3sc(N)nc23)c(-c2nnn[nH]2)c1S(N)(=O)=O` [Example 16, 4-(2-amino-1,3-benzothiazol-4-yl)-N1-[3-(dimethylamino)-2,2-difluoropropyl]-3-(1H-tetrazol-5-yl)benzene-1,2-disulfonamide], for which the Efflux ratio was 16.00.

As to `CN1CCOC(CNS(=O)(=O)c2ccc(-c3cccc4sc(N)nc34)c(-c3nnn[nH]3)c2S(N)(=O)=O)C1` (centres unmarked) [Example 17, 4-(2-amino-1,3-benzothiazol-4-yl)-N1-[(4-methylmorpholin-2-yl)methyl]-3-(1H-tetrazol-5-yl)benzene-1,2-disulfonamide], the Efflux ratio was determined as 2.00.

With `CN1CCCC(NS(=O)(=O)c2ccc(-c3cccc4sc(N)nc34)c(-c3nnn[nH]3)c2S(N)(=O)=O)C1` (centres unmarked) [Example 18, 4-(2-amino-1,3-benzothiazol-4-yl)-N1-(1-methylpiperidin-3-yl)-3-(1H-tetrazol-5-yl)benzene-1,2-disulfonamide], the Efflux ratio was determined as 1.00.

In the case of `Nc1nc2c(-c3ccc(S(=O)(=O)NCC4CCC(=O)N4)c(S(N)(=O)=O)c3-c3nnn[nH]3)cccc2s1` (centres unmarked) [Example 19, 4-(2-amino-1,3-benzothiazol-4-yl)-N1-[(5-oxopyrrolidin-2-yl)methyl]-3-(1H-tetrazol-5-yl)benzene-1,2-disulfonamide], the Efflux ratio is on record as 1.00.

As for `Cn1cnc(CNS(=O)(=O)c2ccc(-c3cccc4sc(N)nc34)c(-c3nnn[nH]3)c2S(N)(=O)=O)n1` [Example 20, 4-(2-amino-1,3-benzothiazol-4-yl)-N^1-[(1-methyl-1H-1,2,4-triazol-3-yl)methyl]-3-(1H-tetrazol-5-yl)benzene-1,2-disulfonamide], the Efflux ratio came to 1.00.

Regarding `CN(C)CCNS(=O)(=O)c1ccc(-c2cccc3sc(N)nc23)c(-c2nnn[nH]2)c1S(N)(=O)=O` [Example 22, 4-(2-amino-1,3-benzothiazol-4-yl)-N^1-[2-(dimethylamino)ethyl]-3-(1H-tetrazol-5-yl)benzene-1,2-disulfonamide], the Efflux ratio turned out to be 1.00.

In the case of `CNC(=O)CNS(=O)(=O)c1ccc(-c2cccc3sc(N)nc23)c(-c2nnn[nH]2)c1S(N)(=O)=O` [Example 23, N^2-{[4-(2-amino-1,3-benzothiazol-4-yl)-2-sulfamoyl-3-(1H-tetrazol-5-yl)phenyl]sulfonyl}-N-methylglycinamide], the Efflux ratio is on record as 1.00.

For `COCCNS(=O)(=O)c1ccc(-c2cccc3sc(N)nc23)c(-c2nnn[nH]2)c1S(N)(=O)=O` [Example 24, 4-(2-amino-1,3-benzothiazol-4-yl)-N^1-(2-methoxyethyl)-3-(1H-tetrazol-5-yl)benzene-1,2-disulfonamide], the Efflux ratio was determined as 4.00.

Take `Nc1nc2c(-c3ccc(S(=O)(=O)N4CCC(CO)CC4)c(S(N)(=O)=O)c3-c3nnn[nH]3)cccc2s1` [Example 25, 3-(2-amino-1,3-benzothiazol-4-yl)-6-{[4-(hydroxymethyl)piperidin-1-yl]sulfonyl}-2-(1H-tetrazol-5-yl)benzenesulfonamide]: the Efflux ratio was determined as 16.00.

Take `CN(C)C1CCN(S(=O)(=O)c2ccc(-c3cccc4sc(N)nc34)c(-c3nnn[nH]3)c2S(N)(=O)=O)CC1` [Example 26, 3-(2-amino-1,3-benzothiazol-4-yl)-6-{[4-(dimethylamino)piperidin-1-yl]sulfonyl}-2-(1H-tetrazol-5-yl)benzenesulfonamide]: the Efflux ratio was found to be 2.00.

On to `CN1CCN(S(=O)(=O)c2ccc(-c3cccc4sc(N)nc34)c(-c3nnn[nH]3)c2S(N)(=O)=O)CC1` [Example 27, 3-(2-amino-1,3-benzothiazol-4-yl)-6-[(4-methylpiperazin-1-yl)sulfonyl]-2-(1H-tetrazol-5-yl)benzenesulfonamide], for which the Efflux ratio came out at 2.00.

As for `Nc1nc2c(-c3ccc(S(=O)(=O)N4CCNC(=O)C4)c(S(N)(=O)=O)c3-c3nnn[nH]3)cccc2s1` [Example 28, 3-(2-amino-1,3-benzothiazol-4-yl)-6-[(3-oxopiperazin-1-yl)sulfonyl]-2-(1H-tetrazol-5-yl)benzenesulfonamide], the Efflux ratio stood at 4.00.

For `Nc1nc2c(-c3ccc(S(=O)(=O)N4CCOCC4)c(S(N)(=O)=O)c3-c3nnn[nH]3)cccc2s1` [Example 29, 3-(2-amino-1,3-benzothiazol-4-yl)-6-(morpholin-4-ylsulfonyl)-2-(1H-tetrazol-5-yl)benzenesulfonamide], the Efflux ratio was determined as 16.00.

With `Nc1nc2c(-c3ccc(S(=O)(=O)NCCC4CNC4)c(S(N)(=O)=O)c3-c3nnn[nH]3)cccc2s1` [Example 30, 4-(2-amino-1,3-benzothiazol-4-yl)-N1-(2-azetidin-3-ylethyl)-3-(1H-tetrazol-5-yl)benzene-1,2-disulfonamide], the Efflux ratio was found to be 1.00.

The record behind these values is patent publication US10544130B2, “Metallo-beta-lactamase inhibitors” (priority 2015, dated 2020).
